Data reported in publication PMC13050480, “Preclinical Development of GT-14, a Novel Inhibitor of Gαi2 Protein: Comprehensive Evaluation of Physicochemical, Metabolic Characteristics and Tissue Distribution” (The AAPS journal, 2025).
Converted amounts (≈) assume the structure as drawn. “And” between values parts separate entries of the source, which are not always exact repeats. Equal values may be shown once. Read-outs that look alike come from different tables or passages of the source.

Legend:
[1] = Lipophilicity (logP), octanol-water shake-flask method; type: physicochemical; settings: 1-octanol/water, room temperature, triplicate, read-out: experimental logP (octanol-water)
Procedure: The lipophilicity of GT-14 as indicated by the logP value (octanol–water partition coefficient) was determined by the traditional shake-flask method. Briefly, equal volumes (1 mL) of 1-octanol and water were added to an amber glass bottle and allowed to equilibrate on a shaker for 24 h. Following equilibration, approx. 1 mg of GT-14 (dissolved in Acetonitrile) was added to the two-phase system and allowed to shake continuously at room temperature for 72 h. The two phases were separated using a separating funnel and then centrifuged at 15,000 rpm for 10 min. The concentration of GT-14 in the octanol and water phases was determined by UPLC assay. The experiment was conducted in triplicate.
The logP was calculated by the equation: logP=logOctanolConc./AqueousConc.

[2] = pH-dependent solubility in USP buffers; type: physicochemical; settings: standard USP buffer, aqueous buffer
Procedure: The pH-dependent stability of GT-14 was assessed in aqueous media of pH ranging from 1 to 10 at room temperature. Standard USP buffers ([11]) were prepared and used for this experiment. Details of buffer solutions are provided in Table I. For the pH solubility profile, GT-14 solid was added in excess amounts in various buffer solutions.

[3] = Cosolvent formulation: solubility, saline dilution and storage stability; type: physicochemical; settings: for solubility: organic solvent or mixture
Procedure: Co-solvent systems with various compositions and ratios of PEG 400, PEG 300, and propylene glycol were prepared to solubilize 5–10 mg/mL of GT-14. Each system was diluted with normal saline at different ratios of 1:1, 1:3, 1:7, and 1:15 (v/v) and observed for signs of precipitation for 4 h. The cosolvent system with maximum solubility and aqueous tolerance was tested for stability at different temperatures (−20°C, 4°C, and room temperature) in amber glass vials for up to a month. Samples were aliquoted at different time points and analyzed with UPLC.

[4] = Bi-directional transport study in Caco-2 cell culture model; type: in vitro ADME, human; settings: human, donor 10 μM
Procedure: (§1) Caco-2 cells were cultivated as described previously with slight modification ([12]). Briefly, a cell monolayer was prepared by seeding 400,000 cells per insert (Nunc, surface area 4.2 cm^2, 3 μm pore size). Cells were maintained at 37°C under 90% humidity and 5% CO2. Monolayers were used between 19 and 22 days after seeding. The integrity of each monolayer was checked by measuring the transepithelial electrical resistance (Millicell ERS®) before the experiment. The normal TEER values obtained were above 400 Ω·cm^2. Cell monolayers with TEER values less than 400 Ω·cm^2 were not used. Hank’s balanced salt solution (HBSS) (9.8 g/L) was supplemented with NaHCO3 (0.37 g/L), HEPES (5.96 g/L), and glucose (3.5 g/L) for all experiments, after adjusting the pH to the desired value.
(§2) For transport studies, 2.5 mL of GT-14 testing solution (10 μM) in HBSS (pH 7.4) was added to the apical side (A to B transport) or the basolateral side (B to A transport). Five donor samples (200 μL) and five receiver samples (200 μL) were taken at 0, 1, 2, 3, and 4 h followed by the addition of 200 μL of GT-14 test solution to the donor or 200 μL of blank HBSS buffer to the receiver side. Then, 100 μl of an ACN containing internal standard was added to the samples right after sampling. The TEER was measured at the end of the study, and the cell layer was washed carefully using cold blank HBSS 3 times, then cut and sonicated for 30 min in 1.0 mL of blank HBSS for intracellular GT-14 concentration measurement. All samples were centrifuged at 15,000 rpm for 15 min at 4°C for UPLC analysis.
(§3) The apparent permeability coefficient and efflux ratio were obtained according to the following equations: […]

Caco-2 cell monolayers = experiment: as above; type: in vitro ADME, human
Procedure: as §1, §2, §3

liver microsomes = experiment: Phase II glucuronidation reaction with liver microsomes; type: in vitro ADME; settings: UDPGA, 2 h
Procedure: The in vitro phase II glucuronidation reaction was carried out using a published protocol that involves the use of uridine diphosphate glucuronic acid (UDPGA) as cofactor, saccharolactone as beta-glucuronidase inhibitor to drive the forward reaction to release the metabolite, potassium phosphate buffer (KPI) to mimic physiological conditions, and alamethicin as a surfactant for the response. The components were pipetted into microcentrifuge tubes in the following order: GT-14 testing solution in KPI (pH 7.4), solution B (25 mM saccharolactone and 5 mM magnesium chloride), solution A (25 mM uridine diphosphate glucuronic acid and potassium chloride), microsome. Samples (100 μL) were taken at 2 h. The reaction was terminated with 50 μL of solution containing 0.6% formic acid in acetonitrile + internal standard (rutin) at each time point and vortexed for 1 min. The samples were then centrifuged at 14,000 rpm for 15 min. The supernatant (100 μL) was then collected and loaded into the UPLC for analysis.

[5] = design: method as in PMID 38744031; settings: rat, cited from earlier work
DU145 = system: DU145; design: method as in PMID 32575572; settings: cited from earlier work
LNCaP cells = system: LNCaP cells; design: method as in PMID 38254786; settings: simultaneous treatment; cited from earlier work

**Q.** Which logP at 72 h [1] does the source give for `C/C(=N\c1ccc(O)cc1)c1cc2ccccc2n1C` [GT-14, (E)-4-((1-(1-methyl-1H-indol-2-yl)ethylidene)amino)phenol] here?
**A.** Its logP at 72 h is 2.38.

**Q.** And the solubility thermodynamic at 24 h ([2]; between pH 5 and 7, 24 h)?
**A.** Its solubility thermodynamic at 24 h is less than 10 µg/mL.

**Q.** And the solubility thermodynamic at 24 h ([2]; pH 1.2, 24 h)?
**A.** The solubility thermodynamic at 24 h was roughly 80 µg/mL (≈ 303 µM).

**Q.** And the solubility thermodynamic at 24 h ([2]; pH 4.6, 24 h)?
**A.** The solubility thermodynamic at 24 h was roughly 140 µg/mL (≈ 530 µM).

**Q.** What about the “Percentage Recovery, cosolvent formulation” value (“Percentage Recovery” below) ([3]; 4°C, Day 7) of the same compound?
**A.** Its value is 101.09 ± 2.19%.

**Q.** And the “Percentage Recovery” value ([3]; 4°C, Day 15)?
**A.** The value was 99.14 ± 0.32%.

**Q.** And the “Percentage Recovery” value ([3]; 4°C, Day 30)?
**A.** Its value is 98.83 ± 0.15%.

**Q.** And the solubility ([3]; PEG300: PEG400: Propylene glycol (1:1:1), PEG300: PEG400: Propylene glycol, ratio 1:1:1, read-out: Solubility in cosolvent formulation)?
**A.** The solubility was 6000 µg/mL.

**Q.** What about the solubility ([3]; PEG300: PEG400: Propylene glycol (3:2:2 v/v), optimum, PEG300: PEG400: Propylene glycol, ratio 3:2:2 v/v, read-out: Solubility in cosolvent formulation (optimum)) of the same compound?
**A.** The solubility was 8000 µg/mL.

**Q.** What about the “increase of solubility in optimum cosolvent formulation over water solubility” value ([3]; PEG 300:PEG 400:propylene glycol 3:2:2) of the same compound?
**A.** Its value is “over 70 times”.

**Q.** And the solubility ([3]; PEG 400: Propylene glycol: Tween 80 (2:1:0.25), PEG 400: Propylene glycol: Tween 80, ratio 2:1:0.25, read-out: Solubility in cosolvent formulation)?
**A.** Its solubility is 5000 µg/mL.

**Q.** What about the “Percentage Recovery” value ([3]; Room Temperature, Day 7) of the same compound?
**A.** The value was 93.4% and 93.37± 0.76%.

**Q.** What about the “Percentage Recovery” value ([3]; Room Temperature, Day 15) of the same compound?
**A.** The value was 91.18 ± 0.38%.

**Q.** And the “Percentage Recovery” value ([3]; Room Temperature, Day 30)?
**A.** Its value is 90.88 ± 0.07%.

**Q.** What about the “precipitation on dilution of cosolvent formulation with saline” value ([3]; optimum cosolvent formulation, several ratios of saline) of the same compound?
**A.** The value was “No precipitation was observed till a 10X dilution with saline”.

**Q.** And the “appearance of cosolvent formulation after one month” value ([3]; room temperature)?
**A.** Its value is “grew a darker color”.

**Q.** What about the “appearance of cosolvent formulation after one month” value ([3]; −20°C and 4°C) of the same compound?
**A.** The value was “remained light yellow, without any visible particles”.

**Q.** And the “Percentage Recovery” value ([3]; −20°C, Day 7)?
**A.** Its value is 100.32 ± 0.08%.

**Q.** And the “Percentage Recovery” value ([3]; −20°C, Day 15)?
**A.** Its value is 101.22 ± 0.27%.

**Q.** What about the “Percentage Recovery” value ([3]; −20°C, Day 30) of the same compound?
**A.** The value was 101.26 ± 0.39%.

**Q.** What about the efflux ratio at 4 h, 10 μM ([4]; Caco-2, pH 7.4) of the same compound?
**A.** Its efflux ratio at 4 h, 10 μM is 1.8.

**Q.** What about the Papp A→B at 4 h, 10 μM ([4]; Caco-2, HBSS pH 7.4, n=3, read-out: apical to basolateral permeability (Pa-b)) of the same compound?
**A.** Its Papp A→B at 4 h, 10 μM is 13 ×10⁻⁶ cm/s.

**Q.** And the Papp B→A at 4 h, 10 μM ([4]; Caco-2, HBSS pH 7.4, n=3, read-out: basolateral to apical permeability (Pb-a))?
**A.** The Papp B→A at 4 h, 10 μM was 24.2 ×10⁻⁶ cm/s.

**Q.** What about the BCS class (Caco-2 cell monolayers; based on low aqueous solubility and high permeability) of the same compound?
**A.** Its BCS class is “BCS class II”.

**Q.** And the “predicted absorption in the GI tract in humans” value (Caco-2 cell monolayers; predicted from Caco-2 permeability)?
**A.** Its value is greater than 75%.

**Q.** What about the “Phase II glucuronidation (UPLC peaks)” value (liver microsomes) of the same compound?
**A.** Its value is “no additional peaks were observed”.

**Q.** And the “maximum plasma concentration (Cmax)” value ([5]; IV bolus 5 mg/kg, two-compartment model)?
**A.** Its value is “approximately 200 ng/mL”.

**Q.** And the “terminal plasma elimination half-life” value ([5]; IV bolus 5 mg/kg, 5 mg/kg)?
**A.** The value was 4.4678 h and 4.468 h.

**Q.** What about the “AUC0–∞” value ([5]; IV bolus 5 mg/kg) of the same compound?
**A.** The value was 23,742 min*ng/mL.

**Q.** What about the “apparent volume of distribution (Vd)” value ([5]; IV bolus 5 mg/kg) of the same compound?
**A.** Its value is 25,205 ± 2,585 mL/kg.

**Q.** What about the distribution half-life ([5]; IV bolus 5 mg/kg) of the same compound?
**A.** The distribution half-life was 0.267 h.

**Q.** What about the “mean systemic clearance (CL)” value ([5]; IV bolus 5 mg/kg) of the same compound?
**A.** The value was 229.9 mL/min/kg.

**Q.** What about the “Plasma half-life in rats” value ([5]; IV) of the same compound?
**A.** Its value is 4 to 5 h.

**Q.** What about the “terminal plasma elimination half-life” value ([5]; IV) of the same compound?
**A.** Its value is greater than 4 h.

**Q.** What about the “migratory capability of DU145 cells” value (DU145) of the same compound?
**A.** Its value is “significant reduction”.

**Q.** What about the “HDACi and antiandrogen effects on cell migration in LNCaP cells” value (LNCaP cells) of the same compound?
**A.** The value was “blocked”.
